According to patent US20200281845A1, “COMPOSITIONS COMPRISING LESPEDEZA PLANT EXTRACT” (Clariant International Ltd., priority 2017, published 2020):

Test system: Per2pro-LUC
Assay: Improvement of circadian clock activity reduced by TCDD, Per2pro-LUC in HaCaT cells
Type: cell-based, human
Settings: TCDD 1.5 nM for 4 hours, compared to cells treated with solvent toluene alone
Experimental: The improvement effects of the extracts of Lespedeza bicolor Turcz, Lespedeza cuneata G. Don, Lespedeza maximowiczii C. K. Schneid and Lespedeza capitata were measured in skin circadian clock activity reduced by TCDD (2,3,7,8-Tetrachlorodibenzo-p-dioxin) which is an environmental hormone dioxin. HaCaT cells containing Per2pro-LUC were inoculated in a 96-well plate containing Hygromycine B at 200 ug/ml and 10% FBS in DMEM medium (1.4×10^4 cells/well), and cultured in a 5% CO2 incubator at 37° C. for 48 hours. After 48 hours, 50 ug/ml of the extracts of Lespedeza bicolor Turcz, Lespedeza cuneata G. Don and Lespedeza maximowiczii C. K. Schneid and Lespedeza capitata were each treated for 24 hours while being treated with TCDD (2,3,7,8-tetrachlorodibenzo-p-dioxin) 1.5 nM for 4 hours simultaneously, and then transferred to the medium for measuring Luciferase (DMEM containing HEPES 10 mM, Luciferin 1 mM, Hygromycine B 200 ug/ml, 10% FBS). […] K. Schneid and Lespedeza capitata in alleviating reduced biorhythm by environmental hormones. As shown here, cells treated with TCDD had 30% reduced absolute value for Per2pro-LUC rhythm, compared to cells that were treated with the solvent toluene alone. In contrast to this, cells treated with the extracts of Lespedeza bicolor Turcz, Lespedeza cuneata G. Don, Lespedeza maximowiczii C.

Q: Which “reduced absolute value for Per2pro-LUC rhythm” value does the source give for `Clc1cc2c(cc1Cl)Oc1cc(Cl)c(Cl)cc1O2` [TCDD, 2,3,7,8-Tetrachlorodibenzo-p-dioxin] here?
A: The value was 30%.
